Data published in patent US9657071B2, “IgE peptide vaccine” (NIPPON ZENYAKU KOGYO CO., LTD., priority 2012, dated 2017).

System: Der f 2-specific IgE
Test: Der f 2-specific IgE in serum of vaccinated, Der f 2-sensitized dogs
Format: in vivo
Conditions: dog
Method: The peptide used was MOUSE CH3-4-17-11 (mouse CH3 region amino acid sequence) (SEQ ID NO: 27). 2 mL (500 μg) of a solution of the peptide (concentration: 250 μg/mL) and 2 mL of a complete adjuvant (DIFCO ADJUVANT COMPLETE FREUND, Becton, Dickinson and Company Japan) were dispensed to microtubes. Liquids (4 mL per animal) emulsified by shaking for 15 minutes in a high-speed shaker were used as IgE peptide vaccines.
The animals used were 1 male and 7 females of 5- to 7-month-old beagles and were divided into an administration group (n=4; 08-33, 08-42, 08-43, and 08-44) and a non-administration group (n=4; 08-45, 08-46, 08-47, and 08-48).
The peptide was administered at days 0 (test start date), 14, and 28 in the first course and further at days 106 and 117 in the second course. The test substance was subcutaneously administered to the necks of the 4 animals in the administration group. The non-administration group was untreated.
Four weeks after the completion of the peptide administration of the first course (days 56 and 70 into the test), all of the animals were artificially sensitized. A mixed liquid (4.0 mL per animal) of 300 μg of Der f 2 (Lot No. 3, 1465 μg/mL, prepared by a drug research team) and 50 mg of an alum adjuvant (SIGMA® Aluminium hydrate IgE1, 13 mg/mL) was used as a sensitizing solution and administered intraperitoneally for the first shot and subcutaneously to the necks for the second shot.
Four weeks after the completion of the peptide administration of the second course (day 145 into the test), the artificial sensitization was boosted. A 1-mL solution prepared from Der f 2 (Lot No. 3: 0.205 mL of 1465 μg/mL: 300 μg) with saline was subcutaneously administered to the necks of all of the animals.
At days 0, 14, 28, 42, 56, 70, 77, 84, 98, 106, 117, 131, 145, and 152 (4 time points (0, 14, 28, and 42) were excluded for the non-administration group), blood was collected from the jugular vein of each individual using a syringe. After separation of serum, the serum was used to measure peptide-specific IgG concentrations and IgE-specific IgG concentrations in the serum.
Serum obtained at days 70, 77, 106, 117, 131, 145, and 152 were used in the measurement of Der f 2-specific IgE concentrations in the serum, which was consigned to AAC Laboratories Inc.

QEKKTSVSASQWYTKHHNNATTSIT (listed as Mus musculus) [MOUSE CH3-4-17-11]
Der f 2-specific IgE in serum, administration group versus non-administration group (all of the time points): no significant difference
Der f 2-specific IgE concentrations in serum, administration group (day 70 (2 weeks after the first sensitization)): 1528.8 ± 1823.6 ng/mL
average of Der f 2-specific IgE concentrations in the serum of the administration group (day 77, 3 animals, excluding 08-43): 1352.3 ng/mL
Der f 2-specific IgE concentrations in serum, administration group (day 106 (peak)): 3091.8 ± 1542.6 ng/mL
Der f 2-specific IgE concentrations in serum, administration group (day 152 (7 days after the boosting)): 3972.5 ± 1216.5 ng/mL
production of IgE after subsequent sensitization (summary of FIG. 6): inhibited the production of IgE
